Data published in publication PMC12631437, “Evaluation of the Activity of 4‑Quinolones against Multi-Life Stages of Plasmodium spp” (ACS Omega, 2025).
Read-outs that look alike come from different tables or passages of the source.

Legend:
[1] = test system: Plasmodium falciparum 3D7 sensitive strain; experiment: SYBR Green growth assay, asexual blood stages, 3D7 sensitive strain; type: cell-based
Description: Parasite strains SB1-A6, 7G8, V1/S, and HB3 were acquired from BEI-MR4, while the ATQ R1 strain, carrying a V259L gene mutation, was generated in-house. […] Parasitemia was monitored using Giemsa-stained blood smears.
Bioassays were conducted with synchronized ring-stage parasites using sorbitol synchronization. Antimalarial compounds were evaluated in 96-well plates, and parasite growth was assessed using a SYBR Green-based fluorescence assay The assays were conducted when the parasite quantity reached at least 70% of the ring stage. Compounds were initially added at specific concentrations in the first wells, followed by serial dilution (1:2) ranging from 20 μM to 0.009 μM. Subsequently, a solution containing parasites in RPMI medium at a hematocrit of 2% was added to each well, and the parasites were then incubated for 72 h.
The IC50 values were determined using concentration–response curves generated in GraphPad 8 software. Additionally, the resistance index was calculated by comparing IC50 values obtained for the sensitive 3D7 strain with those of the resistant strains.

[2] = test system: late-stage gametocytes (IV and V) of P. falciparum NF54; experiment: Late-stage gametocyte bioluminescence assay, luciferase-expressing NF54; type: cell-based, Plasmodium falciparum; conditions: for Pf gametocytes inhibition: 1 μM; for inhibition at 20 µM: Plasmodium falciparum, NF54, 48 h, read-out: Pf gametocytes Inhibition (%)
Description: For the in vitro culture of sexual stages of P. falciparum NF54 Luminescent strain, the Tripathi protocol was followed.
Parasite asexual stages were synchronized, and ring-stage parasites were incubated with a parasite-conditioned medium to induce stress and trigger gametocyte induction. After sexually committed parasites invaded new erythrocytes, N-acetylglucosamine was added to prevent further invasion and clear residual asexual parasites.
When a predominance of late stage (IV and V) gametocytes was identified and counted together, , the MACS magnetic system was used for gametocyte enrichment, as previously described. ,
The column content was eluted with RPMI medium into a 15 mL Falcon tube until translucent medium appeared, yielding ∼ 10 mL of eluate. The sample was centrifuged at 1500 rpm for 5 min at 37 °C, the supernatant discarded, and the pellet washed with preheated RPMI medium containing albumax. A 1 μL pellet sample was used to prepare a Giemsa-stained smear for gametocytaemia determination by counting 2000 cells. The gametocytemia for each assay were 71%, 64% and 31%. The remaining pellet was adjusted to 1 mL with RPMI medium containing 10% human serum at 37 °C. Total cell counts were performed using a Neubauer chamber with a 10X diluted sample.
Each well contained 200,000 gametocytes in 150 μL without erythrocytes. After 48 h of incubation, a luciferase kit (Promega) was used to reveal the assay. Eighty microliters of supernatant were discarded, and the pellet was homogenized in the remaining content. Forty microliters of the sample were transferred to a clear 96-well plate containing lysis solution (1X), gently mixed, and moved to a white-bottomed 96-well plate. Luciferase (40 μL) was added, and luminescence was measured using a microplate reader with a 10-s integration time.

[3] = test system: P. berghei hepatic stages; experiment: Hepatic stage bioluminescence assay, Huh-7 cells infected with luciferase-expressing sporozoites; type: cell-based, Plasmodium berghei; conditions: Plasmodium berghei; Huh-7 cells, 48 h after sporozoite addition; read-out: IC50 (μM) Pb liver stages
Description: (§1) Huh-7 cells were cultured in RPMI 1640 medium (Sigma) supplemented with 10% v/v fetal bovine serum (FBS), 1% v/v penicillin/streptomycin, 1% v/v glutamine, 1% v/v nonessential amino acids, and 10 mM HEPES, pH 7. For compound dilution, a medium containing 1:1000 gentamicin (G) and 1:300 fungizone (F) was used. Cells were seeded at 1 × 10^4 cells/well in 96-well plates and incubated at 37 °C with 5% CO2. After 24 h, compounds were diluted in RPMI+F+G, and after removal of the culture medium, added to the cells in triplicate. DMSO and atovaquone were used as negative and positive controls, respectively. Following incubation for 1 h at 37 °C, 5% CO2, the cells were infected with luciferase-expressing P. berghei sporozoites (4,000 parasites per well) freshly extracted from the salivary glands of infected mosquitoes reared at the GIMM insectarium. The viability of Huh-7 cells exposed to the compounds was assessed 46 h later by the AlamarBlue assay (Invitrogen, UK) measurement, and parasite burden was measured 48 h after sporozoite addition using a bioluminescence assay (Biotium). IC50 values were calculated using GraphPad Prism through nonlinear regression analysis of normalized dose–response curves.

[4] = test system: Huh-7 cells; experiment: Alamar Blue cell confluency (cytotoxicity) in Huh-7 cells; type: cell-based
Description: as §1, with “For” for “Huh-7 cells were cultured in RPMI 1640 medium (Sigma) supplemented with 10% v/v fetal bovine serum (FBS), 1% v/v penicillin/streptomycin, 1% v/v glutamine, 1% v/v nonessential amino acids, and 10 mM HEPES, pH 7. For”, “DMSO and atovaquone were used as negative and positive controls, respectively.” left out
On the first day of the assay, the compounds were diluted at 10 and 1 μM in cRPMI medium supplemented with fungizone. and gentamicin. The culture medium of Huh-7 cells was removed and replaced with compound dilutions in triplicate. As a control, a DMSO dilution mimicking the highest compound concentration used was included. The cells were incubated for 1 h at 37 °C in a 5% CO2 atmosphere.
On the second day of the assay, compound toxicity was assessed by measuring cell confluency using the Alamar Blue/CellTiter Blue reagent. First, reagent aliquots stored at −20 °C were thawed and diluted at a 1:20 ratio in cRPMI. The culture medium was removed and replaced with 80 μL of the solution per well, followed by incubation at 37 °C and 5% CO2 for 1 h and 30 min. Fluorescence was measured using a plate reader with the Tecan i-Control software.

[5] = Plasmodium falciparum, 3D7, 72 h, asexual blood stages, 3D7 sensitive strain, 72 h, read-out: IC50
[6] = asexual blood stages, 3D7 sensitive strain, 72 h, read-out: IC50
[7] = 20 μM, 48 h, late-stage (IV and V) gametocytes

SMILES	IC50 ([1]; Plasmodium falciparum, 3D7, 3D7, strain assigned by order of panels, read-out: IC50 (Figure S1)) [nM]	IC50 [1, 5] [nM]	IC50 [1, 6] [nM]	Pf gametocytes inhibition [2]	inhibition at 20 µM [2, 7] [%]	IC50 [3] [µM]	Confluency % ([4]; 1 μM) [%]	Confluency % ([4]; 10 μM) [%]	Pf gametocytes Inhibition (%) [2, 7] [%]
CCCCCCCCCCCc1cc(=O)c2ccccc2[nH]1 [compound 1, 2-Undecilquinolin-4(1H)-one]	270	210 ± 40	200 ± 100	no activity	44 ± 4	0.25 ± 0.01	97 ± 6	79 ± 2	
CCCCCCOc1ccc(-c2cc(=O)c3ccccc3[nH]2)cc1 [compound 6, 2-(4-(Hexyloxy)-phenyl)-quinolin-4(1H)-one]		560 ± 70	500	no activity	64	0.38 ± 0.04	105 ± 3	102 ± 11	68 ± 25
